Assay results reported in PMC8699473, “An Easily Expandable Multi-Drug LC-MS Assay for the Simultaneous Quantification of 57 Oral Antitumor Drugs in Human Plasma” (Cancers, 2021).
“And” between values parts separate entries of the source, which are not always exact repeats. Equal values may be shown once.

Legend:
[1] = Plasma concentrations in patients on oral antitumor therapy (LC-MS); type: in vivo, human; details: for Interpatient Coefficient of Variation [%]: patient plasma concentrations; for Median Concentration of All Samples [% of r.c.] / Min–Max Concentration [% of r.c.]: patient plasma, r.c. = respective cmin, all samples
Text: The liquid chromatography-mass spectrometer system consisted of a Thermo Scientific Dionex UltiMate^TM 3000 with an integrated and temperature controlled autosampler (Thermo Fisher Scientific, Dreieich, Germany). An Acquity UPLC® BEH C18 column (2.1 × 100 mm, 1.7 µm; Waters, Milford, CT, USA) equipped with an Acquity UPLC® BEH C18 VanGuard^TM Pre-Column (2.1 × 5 mm, 1.7 µm; Waters, Milford, CT, USA) was used for chromatographic separation. The Q-Exactive^TM Focus mass spectrometer (MS) was hyphenated with a heated electrospray ionization (HESI) source (both from Thermo Fisher Scientific, Dreieich, Germany).
Chromatographic separation was achieved using a gradient elution with water containing 0.5% (v/v) FA (eluent A) and MeOH with 0.1% (v/v) FA (eluent B). The injection volume was 5 µL. The gradient program is shown in Supplement Table S2. The flow rate was 0.5 mL/min with a total run time of 15 min. The column heater was maintained at 50 °C and the autosampler temperature was 4 °C.
The following MS and HESI settings were maintained for all analyses: Sheath gas, auxiliary gas, and sweep gas flow rates were set to 60, 20, and 0, respectively. The spray voltage was 4000 V. Both capillary and auxiliary gas heater temperatures were set to 400 °C. High-purity nitrogen gas was used for the HESI source gases and for the bath gas of the C-trap. […] The HESI source was configured in positive mode for ionization.
The stock solutions were stored in glass vials at −80 °C. Aliquots of all stock solutions were combined in ACN (volumes of individual stock solution solvents are negligible) to obtain a standard solution of all analytes with an individual concentration of 200% of the respective trough level (cmin). Eight individual working standards were prepared by stepwise dilution of this standard solution with concentrations from 10 to 200% cmin (shown in Supplement Table S3). Furthermore, the four individual IS stock solutions were combined and diluted to 50 ng/mL with ACN. Calibration and validation standards were prepared by spiking 50 µL pooled human plasma with 10 µL of the respective working solution. Next, 250 µL IS solution (50 ng/mL in ACN) were added and vortexed vigorously. […] Then, 100 µL supernatant were transferred to 300 µL HPLC insert glass vials and diluted with 100 µL eluent (90% A/10% B). For blank samples, 50 µL pooled human plasma were combined with 10 µL ACN (instead of working solution) and prepared as described above. The calibration and validation standards were freshly prepared before every run. Patient plasma samples were prepared as calibration and validation standards (no additional processing step necessary), except for adding 10 µL ACN instead of 10 µL working standard. Before sample preparation, the frozen plasma samples were thawed in absence of light at 4 °C.
Blood samples were collected over the entire dosing interval from patients treated with an oral anticancer drug as listed in Supplement Table S4. […] A maximum of two samples at two different time points throughout the entire dosing interval were collected per patient. Treatment duration before collection was at least five half-lives (depending on the specific oral anticancer drug). The samples were collected in K3-EDTA tubes.
A total of 71 blood samples from 39 patients treated with 14 different oral anticancer drugs were collected (see Supplement Table S4 for details). All patients were recruited from independent outpatient clinics associated with the Comprehensive Cancer Center of the University Hospital Erlangen (CCC Erlangen-EMN). Of 71 blood samples, 41 were taken ±4 h of trough level (cmin).

[2] = Freeze-thaw stability in spiked pooled human plasma; type: physicochemical
[3] = set-up: method as in supplement references [1-55] as printed per drug; details: minimum steady-state blood plasma concentration after multiple dose administration; ref supplement references [1-55] per drug; cited from earlier work

| SMILES | CV of plasma concentration at ±4 h of trough level ([1]; 14 patient samples) [%] | average concentration of the plasma samples at ±4 h of trough level ([1]; 14 patient samples) [ng/mL] | range of plasma concentration at ±4 h of trough level ([1]; 14 patient samples) [ng/mL] | Interpatient Coefficient of Variation [%] [1] [%] | Median Concentration of All Samples [% of r.c.] [1] | Min–Max Concentration [% of r.c.] [1] | Freeze-Thaw Accuracy [%] ([2]; validation standard 2xLLOV) | Freeze-Thaw Accuracy [%] ([2]; validation standard LLOV) | Freeze-Thaw Accuracy [%] ([2]; validation standard MOV) | Freeze-Thaw Accuracy [%] ([2]; validation standard ULOV) | cmin [3] [ng/mL] | Measured plasma concentration ([1]; 6 mg/day, 12 h, ±4 h of trough level: no) [ng/mL] | Measured plasma concentration ([1]; 160 mg/day, 24 h, ±4 h of trough level: yes) | Measured plasma concentration ([1]; 400 mg/day, 24 h, ±4 h of trough level: yes) | Measured plasma concentration ([1]; 14 mg/day, 24 h, ±4 h of trough level: yes) [ng/mL] | Measured plasma concentration ([1]; 600 mg/day, 12 h, ±4 h of trough level: no) | Measured plasma concentration ([1]; 80 mg/day, 24 h, ±4 h of trough level: no) [ng/mL] | Measured plasma concentration ([1]; 200 mg/day, 24 h, ±4 h of trough level: yes) | Measured plasma concentration ([1]; 300 mg/day, 24 h, ±4 h of trough level: no) |
| --- | --- | --- | --- | --- | --- | --- | --- | --- | --- | --- | --- | --- | --- | --- | --- | --- | --- | --- | --- |
| C[C@]12CC[C@H](O)CC1=CC[C@@H]1[C@@H]2CC[C@]2(C)C(c3cccnc3)=CC[C@@H]12 [Abiraterone] | 140.8 | 10.2 | 0.4 to 59.5 | 187.3 | 229.0 % of r.c. | 4.3–1784.9 % of r.c. | 104.5 | 105.9 | 101.5 | 100.2 | 9.3 | – | – | – | – | – | – | – | – |
| CNC(=O)c1ccccc1Sc1ccc2c(/C=C/c3ccccn3)n[nH]c2c1 [Axitinib] | – | – | – | – | – | 6.0 % of r.c. | 108.3 | 102.1 | 105.4 | 104.0 | 5 | 0.3 | – | – | – | – | – | – | – |
| CC(C)(C)c1nc(-c2cccc(NS(=O)(=O)c3c(F)cccc3F)c2F)c(-c2ccnc(N)n2)s1 [Dabrafenib] | – | – | – | – | 722.3 % of r.c. | 455.8–988.8 % of r.c. | 97.8 | 93.9 | 99.0 | 97.6 | 46.6 | – | – | – | – | – | – | – | – |
| CNC(=O)c1ccc(N2C(=S)N(c3ccc(C#N)c(C(F)(F)F)c3)C(=O)C2(C)C)cc1F [Enzalutamide] | – | – | – | – | 120.1 % of r.c. | 97.1–154.2 % of r.c. | 97.8 | 87.6 | 100.9 | 96.1 | 11400 | – | 11296.4 ng/mL and 14087.2 ng/mL and 14395.8 ng/mL and 17580.7 ng/mL and 11074.7 ng/mL | – | – | – | – | – | – |
| Cc1ccc(NC(=O)c2ccc(CN3CCN(C)CC3)cc2)cc1Nc1nccc(-c2cccnc2)n1 [Imatinib] | – | – | – | 29.4 | 168.9 % of r.c. | – | 98.5 | 100.6 | 96.7 | 96.3 | – | – | – | 1998.2 ng/mL and 1309.6 ng/mL | – | – | – | – | – |
| COc1cc2nccc(Oc3ccc(NC(=O)NC4CC4)c(Cl)c3)c2cc1C(N)=O [Lenvatinib] | – | – | – | – | – | – | 102.5 | 111.6 | 98.4 | 103.0 | – | – | – | – | 7.8 | – | – | – | – |
| O=C(c1cc(Cc2n[nH]c(=O)c3ccccc23)ccc1F)N1CCN(C(=O)C2CC2)CC1 [Olaparib] | – | – | – | 51.6 | 287.6 % of r.c. | – | 99.5 | 113.4 | 96.6 | 100.5 | 1570 | – | – | – | – | 4442.9 ng/mL and 5552.4 ng/mL and 6053.6 ng/mL | – | – | – |
| C=CC(=O)Nc1cc(Nc2nccc(-c3cn(C)c4ccccc34)n2)c(OC)cc1N(C)CCN(C)C [Osimertinib] | – | – | – | – | – | 101.1 % of r.c. | 93.7 | 95.6 | 96.2 | 92.7 | 166 | – | – | – | – | – | 167.8 | – | – |
| Cc1ccc(Nc2nccc(N(C)c3ccc4c(C)n(C)nc4c3)n2)cc1S(N)(=O)=O [Pazopanib] | – | – | – | – | 81.5 % of r.c. | 76.6–86.5 % of r.c. | 103.5 | 102.7 | 103.9 | 100.5 | 24000 | – | – | – | – | – | – | 24300.0 ng/mL and 21520.0 ng/mL | – |
| COc1cc2nccc(Oc3ccc(NC(=O)Nc4cc(C)on4)c(Cl)c3)c2cc1OC [Tivozanib] | – | – | – | 53.8 | 41.4 % of r.c. | 16.4–68.3 % of r.c. | 96.8 | 90.0 | 99.9 | 98.1 | 80 | – | – | – | – | – | – | – | – |
| COc1cc2c(Nc3ccc(Br)cc3F)ncnc2cc1OCC1CCN(C)CC1 [Vandetanib] | – | – | – | – | 86.7 % of r.c. | 78.2–95.3 % of r.c. | 97.2 | 83.4 | 101.5 | 94.0 | 795 | – | – | – | – | – | – | – | 757.7 ng/mL and 621.3 ng/mL |
| CCC1=C[C@@H]2CN(C1)Cc1c([nH]c3ccccc13)[C@@](C(=O)OC)(c1cc3c(cc1OC)N(C)[C@H]1[C@@](O)(C(=O)OC)[C@H](OC(C)=O)[C@]4(CC)C=CCN5CC[C@]31[C@@H]54)C2 [Vinorelbine] | – | – | – | – | – | – | 105.8 | 120.0 | 95.7 | 96.7 | 2.6 | – | – | – | – | – | – | – | – |
| CS(=O)(=O)c1ccc(C(=O)Nc2ccc(Cl)c(-c3ccccn3)c2)c(Cl)c1 [Vismodegib] | – | – | – | – | – | – | 103.4 | 77.6 | 103.2 | 94.1 | 11367 | – | – | – | – | – | – | – | – |
